Measurements as given in patent publication EP1388586A2, “Identification of broadly reactive DR restricted epitopes” (priority 1998, dated 1999).
pIC50: −log10 of the molar value. Like-named read-outs stand apart in the source and are kept apart here. Square brackets hold non-standard residues; d marks the D form. Ends that are not written are not given here. Peptide text beside a SMILES is read from it.

What was measured:
[1] = molecular target: T1, DRB1*0401 (DR4w4) (Homo sapiens, UniProt P01903+P01911, A100K/A169T/F76Y/I96L/K127E/L162R/M171V/N62H/P40V/Q125Y/R42H/S133A/S149N/S66Y/V115G/V209L/W38E); test: Class II peptide-binding assay, DR4w4;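 further: unlabeled test peptides compete with a radiolabeled probe peptide for binding to affinity-purified HLA-DR, with DR amount titrated to capture a small fraction of label, IC50 approximating Kd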
T1 construct: used as sources of human HLA class II molecules; endogenous in cells; host or cells: PREISS (EBV-transformed homozygous B cell line)

[2] = molecular target: T2, DRB1*1101 (DR5w11) (Homo sapiens, UniProt P01903+P01911, A100R/A169T/A87E/I96F/K41T/L162R/M171V/P40S/Q125H/Q178H/Q39Y/Q99D/R42S/S66Y/T262R/V115G/W38E); test: Class II peptide-binding assay, DR5w11;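 further: competition by unlabeled test peptide against iodinated probe peptide binding to affinity-purified HLA-DR, class II amount titrated beforehand, half-maximal inhibitory concentration read as approximate Kd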
T2 construct: used as sources of human HLA class II molecules; endogenous in cells; host or cells: SWEIG (EBV-transformed homozygous B cell line)
Method: Class II peptide-binding assays. […] These assays were chosen as to be representative of the most common DR alleles.
Radiolabeled peptides were iodinated using the chloramine-T method. […] In appropriate stoichiometric conditions, the IC50 of an unlabeled test peptide to the purified DR is a reasonable approximation of the affinity of interaction (Kd). Peptides were tested in two to four completely independent experiments. […] Final detergent concentration in the incubation mixture was 0.05% Nonidet P-40. Assays were performed at pH 7.0 with the exception of DR3, which was performed at pH 4.5, and DRw53, which was performed at pH 5.0.
All subsequent inhibition and direct binding assays were the performed using these class II concentrations.

[3] = molecular target: DRB1*0701 (DR7) (Homo sapiens, UniProt P01903+P01911, A100R/A102G/A103Q/D57E/D86V/E43K/F76Y/K127E/L162R/M171V/P40G/Q125H/Q99D/R33Q/R42Y/R54Q/S133A/S66F/T210M/V115G/Y107V/Y59L/Y89S); test: Class II peptide-binding assay, DR7;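 further: unlabeled peptides compete with an iodinated probe peptide for binding to affinity-purified HLA-DR at neutral pH, DR amount titered to bind a small tracer fraction, IC50 approximating Kd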
[4] = molecular target: T3, DRB5*0101 (DR2w2a) (Homo sapiens, UniProt P01903+Q30154); test: Class II peptide-binding assay, DR2w2a (DR2w2B2);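 further: competitive binding assay: unlabeled peptide inhibiting binding of a radiolabeled probe peptide to purified DR molecules at pH 7.0, IC50 approximating Kd, lower means stronger binding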
T3 construct: used as sources of human HLA class II molecules; endogenous in cells; host or cells: GM3107 (EBV-transformed homozygous B cell line)

[5] = molecular target: T4, DRB1*0101 (DR1) (Homo sapiens, UniProt P01903+P01911, A100R/D57E/F55L/F60I/F76Y/I96L/L162R/M171V/P40L/Q125E/R42F/V115G/Y59C); test: Class II peptide-binding assay, DR1;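 further: competition assay: unlabeled test peptides inhibit binding of a radiolabeled probe peptide to purified DR, with half-maximal inhibition taken as an approximate dissociation constant Kd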
T4 construct: used as sources of human HLA class II molecules; endogenous in cells; host or cells: LG2 (EBV-transformed homozygous B cell line)

[6] = molecular target: T5, DRB10404 (DR4w14) (Homo sapiens, UniProt P01903+P01911, A100R/A169T/F76Y/I96L/K127E/L162R/M171V/N62H/P40V/Q125Y/R42H/S133A/S149N/S66Y/V209L/W38E); test: Class II peptide-binding assay, DR4w14;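 further: unlabeled peptides compete with a radiolabeled probe for binding to affinity-purified HLA-DR, neutral pH, class II amount titrated to bind a small fraction of label, IC50 approximates Kd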
T5 construct: used as sources of human HLA class II molecules; endogenous in cells; host or cells: BIN40 (EBV-transformed homozygous B cell line)

[7] = read-out: DR4w4 nM (In IC50 Format), purified HLA DR4w4
[8] = read-out: DR5w11 nM (In IC50 Format), purified HLA DR5w11
[9] = read-out: DR2w2B2 nM (In IC50 Format), purified HLA DR2w2β2
[10] = read-out: DR1 nM (In IC50 Format), purified HLA DR1
[11] = read-out: DR7 nM (In IC50 Format), purified HLA DR7
[12] = read-out: DR4w14 nM (In IC50 Format), purified HLA DR4w14
[13] = read-out: DR4w4 nM, Table VIII, In IC50 Format
[14] = read-out: DR5w11 nM, Table VIII, In IC50 Format
[15] = read-out: DR2w2B2 nM, Table VIII, In IC50 Format
[16] = read-out: DR4w14 nM, Table VIII, In IC50 Format
[17] = read-out: DR1 nM, Table VIII, In IC50 Format

T2 sequence (P01903 26-254, other chains not shown): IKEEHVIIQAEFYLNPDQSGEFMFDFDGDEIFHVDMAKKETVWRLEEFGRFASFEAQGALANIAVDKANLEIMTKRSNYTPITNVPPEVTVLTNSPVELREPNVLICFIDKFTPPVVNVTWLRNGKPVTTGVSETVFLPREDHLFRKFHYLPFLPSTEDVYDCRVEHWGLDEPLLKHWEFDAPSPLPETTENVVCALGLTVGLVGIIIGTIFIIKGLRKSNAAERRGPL

Molecule	pIC50 [1, 7]	pIC50 [2, 8]	pIC50 [4, 9]	pIC50 [5, 10]	pIC50 [3, 11]	pIC50 [6, 12]	further results
CC[C@H](C)[C@H](NC(=O)[C@H](CCSC)NC(=O)[C@H](Cc1c[nH]c2ccccc12)NC(=O)[C@H](CS)NC(=O)[C@H](CCCCN)NC(=O)[C@@H](NC(=O)[C@H](CCSC)NC(=O)[C@@H](NC(=O)[C@H](CCSC)NC(=O)[C@H](Cc1ccc(O)cc1)NC(=O)[C@@H](NC(=O)[C@@H](N)CC(=O)O)C(C)C)[C@@H](C)CC)C(C)C)C(=O)N[C@@H](CC(=O)O)C(=O)N[C@@H](CO)C(=O)N[C@@H](CCC(=O)O)C(=O)O [Peptide 39.0277]							pIC50 ([1]; Table VIII, page 2, read-out: In IC50 Format DR4w4 nM): 6.10; pIC50 ([2]; Table VIII, page 2, read-out: In IC50 Format DR5w11 nM): 6.04
CC[C@H](C)[C@H](NC(=O)[C@@H](NC(=O)[C@H](CC(C)C)NC(=O)[C@@H](NC(=O)[C@@H]1CCCN1C(=O)[C@H](CCCNC(=N)N)NC(=O)[C@@H](N)CCCNC(=N)N)[C@@H](C)CC)[C@@H](C)O)C(=O)N[C@H](C(=O)N[C@H](C(=O)N[C@@H](CC(C)C)C(=O)N[C@@H](CCC(=O)O)C(=O)N[C@@H](CC(=O)O)C(=O)N[C@@H](CO)C(=O)N[C@@H](CO)C(=O)NCC(=O)O)[C@@H](C)O)[C@@H](C)CC [Peptide 39.0310]							pIC50 ([3]; read-out: In IC50 Format DR7 nM, Table VIII, page 2): 4.96
C[C@H](NC(=O)[C@H](C)NC(=O)[C@H](C)NC(=O)[C@H](C)NC(=O)[C@H](Cc1ccc(O)cc1)NC(=O)[C@H](C)NC(=O)[C@@H](C)N)C(=O)N[C@@H](C)C(=O)N[C@@H](C)C(=O)N[C@@H](CCCCN)C(=O)N[C@@H](C)C(=O)N[C@@H](C)C(=O)N[C@H](C)C(N)=O [Peptide 762.01] (H-[dA]AYAAAAAAKAA[dA]-NH2)	8.15	7.33	7.56	8.77	5.78		
CC(C)C[C@H](NC(=O)[C@@H](NC(=O)[C@@H](NC(=O)[C@H](CCC(N)=O)NC(=O)[C@H](CCCNC(=N)N)NC(=O)[C@H](CCC(N)=O)NC(=O)[C@@H](N)Cc1ccccc1)[C@@H](C)O)[C@@H](C)O)C(=O)N[C@@H](CCCCN)C(=O)N[C@@H](C)C(=O)N[C@@H](C)C(=O)N[C@H](C)C(N)=O [Peptide 781.06] (H-FQRQTTLKAA[dA]-NH2)	8.62			7.72		7.86	
CC(C)C[C@H](NC(=O)[C@@H](NC(=O)[C@@H](NC(=O)[C@H](CCC(N)=O)NC(=O)[C@H](CCCNC(=N)N)NC(=O)[C@H](CCC(N)=O)NC(=O)[C@H](Cc1ccccc1)NC(=O)[C@H](CCCNC(=N)N)NC(=O)[C@H](C)NC(=O)[C@H](N)Cc1ccc(O)cc1)[C@@H](C)O)[C@@H](C)O)C(=O)N[C@@H](CCCCN)C(=O)N[C@@H](C)C(=O)N[C@@H](C)C(=O)N[C@H](C)C(N)=O [Peptide 781.09] (H-[dY]ARFQRQTTLKAA[dA]-NH2)	8.70	8.13	7.42	8.55		8.13	
CC(C)C[C@H](NC(=O)[C@@H](NC(=O)[C@@H](NC(=O)[C@H](CCC(N)=O)NC(=O)[C@H](CCCCN)NC(=O)[C@H](CC(=O)O)NC(=O)[C@H](Cc1ccccc1)NC(=O)[C@@H](CCCNC(=N)N)NC(=O)[C@H](C)NC(=O)[C@H](N)Cc1ccc(O)cc1)[C@@H](C)O)[C@@H](C)O)C(=O)N[C@@H](CCCCN)C(=O)N[C@@H](C)C(=O)N[C@@H](C)C(=O)N[C@H](C)C(=O)O [Peptide 781.19] (H-[dY]A[dR]FDKQTTLKAA[dA]-OH)	8.09	7.32	5.48	7.22		7.02	
CC(C)C[C@H](NC(=O)[C@@H](NC(=O)[C@@H](NC(=O)[C@H](CCC(N)=O)NC(=O)[C@H](CO)NC(=O)[C@H](CCC(N)=O)NC(=O)[C@H](Cc1ccccc1)NC(=O)[C@H](CCCCN)NC(=O)[C@H](C)NC(=O)[C@H](N)Cc1ccc(O)cc1)[C@@H](C)O)[C@@H](C)O)C(=O)N[C@@H](CCCCN)C(=O)N[C@@H](C)C(=O)N[C@@H](CCCCN)C(=O)N[C@@H](C(N)=O)[C@H](C)O [Peptide 858.02] (H-[dY]AKFQSQTTLKAK[dT]-NH2)							pIC50 [1, 13]: 8.19; pIC50 [2, 14]: 7.79; pIC50 [4, 15]: 7.49; pIC50 [6, 16]: 7.75; pIC50 [5, 17]: 8.05
CC(C)C[C@H](NC(=O)[C@@H](NC(=O)[C@@H](NC(=O)[C@H](CCC(N)=O)NC(=O)[C@H](CO)NC(=O)[C@H](CCC(N)=O)NC(=O)[C@H](Cc1ccccc1)NC(=O)[C@H](C)NC(=O)[C@H](C)NC(=O)[C@H](N)Cc1ccc(O)cc1)[C@@H](C)O)[C@@H](C)O)C(=O)N[C@@H](CCCCN)C(=O)N[C@@H](C)C(=O)N[C@@H](CCCCN)C(=O)N[C@@H](C(N)=O)[C@H](C)O [Peptide 858.04] (H-[dY]AAFQSQTTLKAK[dT]-NH2)							pIC50 [1, 13]: 8.35; pIC50 [2, 14]: 7.71; pIC50 [4, 15]: 6.85; pIC50 [6, 16]: 7.81; pIC50 ([3]; read-out: DR7 nM, Table VIII, In IC50 Format): 4.60
CC(C)C[C@H](NC(=O)[C@@H](NC(=O)[C@@H](NC(=O)[C@H](CCC(N)=O)NC(=O)[C@H](CO)NC(=O)[C@H](CCC(N)=O)NC(=O)[C@H](Cc1ccccc1)NC(=O)[C@H](CCCNC(=N)N)NC(=O)[C@H](C)NC(=O)[C@H](N)Cc1ccc(O)cc1)[C@@H](C)O)[C@@H](C)O)C(=O)N[C@@H](CCCCN)C(=O)N[C@@H](C)C(=O)N[C@@H](CCCCN)C(=O)N[C@@H](C(N)=O)[C@H](C)O [Peptide 858.06] (H-[dY]ARFQSQTTLKAK[dT]-NH2)							pIC50 [1, 13]: 8.30; pIC50 [2, 14]: 7.74; pIC50 [4, 15]: 7.19; pIC50 [5, 17]: 8.35
ASQKRPSQRSKYLATAST [Peptide 765.011]	6.49	5.35	5.60	6.51	6.02		
INSWVESQTNGIIR [Peptide 608.02]							pIC50 ([1]; read-out: In IC50 Format DR4w4, Table VIII): 6.43; pIC50 ([4]; read-out: In IC50 Format DR2w2β2, Table VIII): < 5.00; pIC50 ([6]; read-out: In IC50 Format DR4w14, Table VIII): 4.78; pIC50 ([5]; read-out: In IC50 Format DR1, Table VIII): 6.26; pIC50 ([3]; read-out: In IC50 Format DR7, Table VIII): 7.83
KSNTATSATQRLANSLVH [Peptide 735.01]	6.36	5.88		6.51	4.90	6.45	
LMAMGITDVFSSSANLSGI [Peptide 705.08]	7.85	5.60		6.38	6.39		
QPDVRPQPPSPREGP [Peptide 39.0280]							pIC50 ([5]; Table VIII, page 2, read-out: In IC50 Format DR1): 5.15
YARFQFQTTLKAKT-NH2 [Peptide 717.46]		8.43	7.40	8.35	5.38	8.59	
YARFQRQTTLKIAT [Peptide 716.01]	7.78		7.02	8.54	7.37	6.96	
YARFQSETTEKAKT-NH2 [Peptide 717.07]	7.19		5.30			6.09	
YARFQSQTPLKAKT-NH2 [Peptide 717.37]	8.05	8.10	7.19	8.60		7.17	
YARFQSQTTLEAKT-NH2 [Peptide 717.22]	7.93	7.53	6.06	8.10	5.56		
YARFQSQTTLKAET-NH2 [Peptide 717.26]	7.74			7.45	5.38	7.70	
YARYQSQTTLKAKT-NH2 [Peptide 717.42]	8.51	7.84	6.44	8.11		7.18	
